Experimental data as given in patent US10966978B2, “Dose and regimen for HDM2-p53 interaction inhibitors” (Novartis AG, priority 2016, dated 2021).
Read-outs that look alike come from different tables or passages of the source.

System: patients with advanced TP53 wild-type (WT) leukemias
[1] = All subjects N = 37, All Grades

COc1ncc(-c2nc3c(n2C(C)C)[C@H](c2ccc(Cl)cc2)N(c2cc(Cl)cn(C)c2=O)C3=O)c(OC)n1 [HDM201, (S)-5-(5-Chloro-1-methyl-2-oxo-1,2-dihydro-pyridin-3-yl)-6-(4-chloro-phenyl)-2-(2,4-dimethoxy-pyrimidin-5-yl)-1-isopropyl-5,6-dihydro-1H-pyrrolo[3,4-d]imidazol-4-one]
Cycle 1 DLTs (1A 350 mg (4 evaluable patients)): 0
Cycle 1 DLTs (1A 400 mg (9 evaluable patients)): 4
Cycle 1 DLTs (1A (d1 Q3W) 250 mg (3 evaluable patients)): 0
Cycle 1 DLTs, Total (1A all doses, N = 16): 4:
Cycle 1 DLTs (1B (d1, d8 Q4W) 150 mg (6 evaluable patients)): 1
Cycle 1 DLT events observed (1B, N = 6): Acute Kidney Injury G4
Cycle 1 DLTs (2A 30 mg (3 evaluable patients)): 0
Cycle 1 DLTs (2A (2 weeks on/2 weeks off) 20 mg (3 evaluable patients)): 0
Cycle 1 DLTs, Total (2A all doses, N = 6): 0
Cycle 1 DLTs (2C (1 week on/3 weeks off) 45 mg (8 evaluable patients)): 1
Cycle 1 DLT events observed (2C, N = 8): Tumor Lysis Syndrome G4
Cycle 1 DLTs, Total (2C, N = 8): 1
AE: Abdominal Discomfort [1]: 1 (2.7) n (%)
AE: Abdominal Pain [1]: 2 (5.4) n (%)
AE: Abdominal Pain Upper [1]: 1 (2.7) n (%)
AE: Acute Kidney Injury [1]: 3 (8.1) n (%)
AE: Amylase Increased [1]: 3 (8.1) n (%)
AE: Anaemia [1]: 16 (43.2) n (%)
AE: Arthralgia [1]: 1 (2.7) n (%)
AE: Asthenia [1]: 5 (13.5) n (%)
AE: Atrial Fibrillation [1]: 2 (5.4) n (%)
AE: Atypical Pneumonia [1]: 1 (2.7) n (%)
AE: Balanitis Candida [1]: 1 (2.7) n (%)
AE: Blood Alkaline Phosphatase Increased [1]: 1 (2.7) n (%)
AE: Blood Bilirubin Increased [1]: 2 (5.4) n (%)
AE: Blood Creatinine Increased [1]: 3 (8.1) n (%)
AE: Blood Phosphorus Increased [1]: 3 (8.1) n (%)
AE: Blood Uric Acid Increased [1]: 1 (2.7) n (%)
AE: Bone Marrow Failure [1]: 1 (2.7) n (%)
AE: C-Reactive Protein Increased [1]: 2 (5.4) n (%)
AE: Cardiac Failure [1]: 1 (2.7) n (%)
AE: Cellulitis [1]: 1 (2.7) n (%)
AE: Chronic Graft Versus Host Disease [1]: 1 (2.7) n (%)
AE: Conjunctival Haemorrhage [1]: 1 (2.7) n (%)
AE: Constipation [1]: 2 (5.4) n (%)
AE: Cough [1]: 1 (2.7) n (%)
AE: Cystitis Viral [1]: 1 (2.7) n (%)
AE: Cytomegalovirus Infection [1]: 1 (2.7) n (%)
AE: Decreased Appetite [1]: 10 (27.0) n (%)
AE: Diarrhoea [1]: 6 (16.2) n (%)
AE: Dyspepsia [1]: 2 (5.4) n (%)
AE: Dyspnoea [1]: 1 (2.7) n (%)
AE: Epistaxis [1]: 1 (2.7) n (%)
AE: Fatigue [1]: 6 (16.2) n (%)
AE: Febrile Neutropenia [1]: 11 (29.7) n (%)
AE: Gamma-Glutamyltransferase Increased [1]: 2 (5.4) n (%)
AE: General Physical Health Deterioration [1]: 2 (5.4) n (%)
AE: Gingival Bleeding [1]: 2 (5.4) n (%)
AE: Graft Versus Host Disease [1]: 1 (2.7) n (%)
AE: Haemoglobin Decreased [1]: 1 (2.7) n (%)
AE: Headache [1]: 2 (5.4) n (%)
AE: Hyperbilirubinaemia [1]: 3 (8.1) n (%)
AE: Hyperglycaemia [1]: 1 (2.7) n (%)
AE: Hyperkalaemia [1]: 1 (2.7) n (%)
AE: Hyperphosphataemia [1]: 3 (8.1) n (%)
AE: Hyperuricaemia [1]: 2 (5.4) n (%)
AE: Hypoalbuminaemia [1]: 1 (2.7) n (%)
AE: Hypocalcaemia [1]: 2 (5.4) n (%)
AE: Hypokalaemia [1]: 1 (2.7) n (%)
AE: Hypomagnesaemia [1]: 1 (2.7) n (%)
AE: Hyponatraemia [1]: 2 (5.4) n (%)
AE: Hypophosphataemia [1]: 2 (5.4) n (%)
AE: Hypotension [1]: 1 (2.7) n (%)
AE: Infection [1]: 1 (2.7) n (%)
AE: Infective Glossitis [1]: 1 (2.7) n (%)
AE: Iron Overload [1]: 1 (2.7) n (%)
AE: Leukopenia [1]: 2 (5.4) n (%)
AE: Lip Oedema [1]: 1 (2.7) n (%)
AE: Lipase Increased [1]: 3 (8.1) n (%)
AE: Macular Oedema [1]: 1 (2.7) n (%)
AE: Malaise [1]: 2 (5.4) n (%)
AE: Mouth Haemorrhage [1]: 2 (5.4) n (%)
AE: Nausea [1]: 20 (54.1) n (%)
AE: Neutropenia/Neutrophil Count Decreased [1]: 12 (32.4) n (%)
AE: Oedema [1]: 1 (2.7) n (%)
AE: Oedema Peripheral [1]: 1 (2.7) n (%)
AE: Oral Disorder [1]: 1 (2.7) n (%)
AE: Pain In Extremity [1]: 1 (2.7) n (%)
AE: Pancytopenia [1]: 2 (5.4) n (%)
AE: Pneumonia [1]: 1 (2.7) n (%)
AE: Pollakiuria [1]: 1 (2.7) n (%)
AE: Pyrexia [1]: 4 (10.8) n (%)
AE: Rash [1]: 1 (2.7) n (%)
AE: Rash Erythematous [1]: 1 (2.7) n (%)
AE: Rash Papular [1]: 1 (2.7) n (%)
AE: Rectal Haemorrhage [1]: 1 (2.7) n (%)
AE: Renal Failure [1]: 1 (2.7) n (%)
AE: Skin Exfoliation [1]: 1 (2.7) n (%)
AE: Stomatitis [1]: 2 (5.4) n (%)
AE: Subarachnoid Haemorrhage [1]: 1 (2.7) n (%)
AE: Thrombocytopenia/Platelet Count Decreased [1]: 18 (48.6) n (%)
AE: Total [1]: 33 (89.2) n (%)
AE: Tumour Lysis Syndrome [1]: 9 (24.3) n (%)
AE: Vomiting [1]: 7 (18.9) n (%)
AE: Weight Decreased [1]: 1 (2.7) n (%)
AE: White Blood Cell Count Decreased [1]: 4 (10.8) n (%)
AE: Abdominal Discomfort (All subjects N = 37, Grade 3/4): 0 n (%)
AE: Abdominal Pain (All subjects N = 37, Grade 3/4): 0 n (%)
AE: Abdominal Pain Upper (All subjects N = 37, Grade 3/4): 0 n (%)
AE: Acute Kidney Injury (All subjects N = 37, Grade 3/4): 1 (2.7) n (%)
AE: Amylase Increased (All subjects N = 37, Grade 3/4): 0 n (%)
AE: Anaemia (All subjects N = 37, Grade 3/4): 11 (29.7) n (%)
AE: Arthralgia (All subjects N = 37, Grade 3/4): 0 n (%)
AE: Asthenia (All subjects N = 37, Grade 3/4): 0 n (%)
AE: Atrial Fibrillation (All subjects N = 37, Grade 3/4): 0 n (%)
